Reference: PMC5361054, “Exploring the Association of Surface Plasmon Resonance with Recombinant MHC:Ig Hybrid Protein as a Tool for Detecting T Lymphocytes in Mice Infected with Leishmania (Leishmania) amazonensis” (BioMed Research International, 2017)

Key:
[1] = tested on: lymph node cells (T lymphocytes) from L. (L.) amazonensis-infected BALB/c mice; assay: SPR interaction of lymph node cells with immobilized DimerX/peptide complexes; format: cell-based; conditions: for RUs (subtractive dissociation response) 3rd week: 3rd week of infection; for RUs (subtractive dissociation response) 4th week: 4th week of infection; for RUs (subtractive dissociation response) 6th week: 6th week of infection; for RUs (subtractive dissociation response) 12th week: 12th week of infection; for RUs (subtractive dissociation response) 18th week: 18th week of infection; for trend of reactivity of peptide-reactive T lymphocytes along the infection: weeks 1 to 18 of infection, result in words
Method: BALB/c 5–7-week-old female mice (H-2 haplotype^d) were obtained from the animal care facility of Fiocruz (Centro de Criação de Animais de Laboratório (CECAL), Fiocruz). For the experimental infections, each animal was inoculated subcutaneously with 1.0 × 10^5 stationary-phase promastigotes in PBS (50 μL) in the left hind paw. For in vitro and ex vivo assays, cells were isolated from the lesion-draining popliteal lymph nodes of five mice infected with L. (L.) amazonensis. After isolating and counting the viable cells, these were adjusted and resuspended in RPMI medium supplemented with 2% FCS (5.0 × 10^5 cells/mL). All procedures using animals were previously approved by the Animal Ethics Committee of Fiocruz (Comissão de Ética no Uso de Animais (CEUA), Fiocruz; L-0006/07).
Interaction of the Cells with the Complex DimerX/Peptide (Step 4). The reflectance values were expressed as resonance units per second (RU/s). In these assays, the kinetics of association and dissociation between immobilized DimerX/peptide complexes and lymph node cells were determined. These assays were performed with 10^4 cells suspended in PBS in a final volume of 100 μL (Fr = 5 μL/min).
Regeneration of the Sensor Chips (Step 5). The regeneration was performed by the injection of 250 μL of 30 mM HCl (Fr = 50 μL/min) into the system, followed by the injection of 200 μL PBS (Fr = 50 μL/min). After this procedure, only the DimerX molecules were left on the sensor chip surface; thus they were able to form new complexes with different peptides and interact again with cells.
Lymph node cells were injected onto SPR chips covered by immobilized DimerX/peptides complexes (Figure 4). In these experiments, due to the complexity to define the kinetic parameters for whole cells, the RU values for association (RUa) and dissociation (RUd) were used as standards to assess interaction of cells with the complexes. Also, as the stability of RUd signal over time relates to the stability of interaction, it was used as parameter to define the binding of reactive cells.
Furthermore, experimental evidences support the hypothesis that the binding of the cells from infected mice to the immobilized complexes is specific, once the RUd values obtained for these interactions were consistently higher that those observed for the interaction of cells from noninfected mice. The RU values obtained by the subtraction of the nonspecific interaction RU (cells from noninfected animals) from the specific interaction RU (cells from infected mice) were considered as representative of the binding effectiveness (Table 2). These effectiveness RU values allowed observing a different trend of T lymphocytes recognition for each peptide tested throughout the experimental infection timeline (Table 2).

[2] = biological target: H-2 L^d:Ig (DimerX) protein; assay: SPR kinetics of synthetic peptide binding to immobilized DimerX; parameters: species or system Mouse; conditions: for Kd: KD = kd/ka from SPR at 25°C, read-out: affinity constant (KD); for association constant (ka) / dissociation constant (kd): SPR, DimerX immobilized on carboxylated sensor chip by EDC/NHS, peptide in PBS, neutral pH, 25°C
Method: Surface Functionalization of Sensor Chip (Steps 1 and 2). The functionalization process was performed in eight steps using running buffer (10 mM HEPES, 3 mM EDTA, 150 mM NaCl, and 0.005% Tween 20, pH 7.4) at a continuous flow rate (Fr): (i) injection of 10 μL of 50 mM HCl (Fr = 10 μL/min); (ii) injection of 100 μL 10 mM CH3COOH (Fr = 50 μL/min); (iii) injection of 150 μL of coupling agents (1 : 1) 400 mM EDC : NHS (Fr = 15 μL/min); (iv) injection of 100 μL 10 mM CH3COOH (Fr = 50 μL/min); (v) injection of 100 μL (0.5 μg) of DimerX H-2 L^d:Ig (Fr = 10 μL/min); (vi) injection of 100 μL 10 mM CH3COOH (Fr = 50 μL/min); (vii) injection of 150 μL 100 mM ethanolamine (Fr = 20 μL/min); and (viii) injection of 200 μL 50 mM HCl (Fr = 50 μL/min).
Complex Formation of H-2 L ^d :Ig/Peptide (Step 3). Binding of peptides to protein DimerX was performed through the injection of 100 μL of each synthetic peptide over the functionalized sensor chip (Fr = 10 μL/min). The peptides (2 mg/mL) were diluted in filtrated PBS, which was also used as the running buffer. The concentration of peptides for binding to the DimerX was determined according to the manufacturer's instructions:(1) Mp=MH·R·Dp/DH, where Mp is micrograms of the peptide, MH is micrograms of H-2 in the reaction, R is molar excess (160 mol) between the peptide and protein H-2, Dp is molecular weight of the peptide, and DH is molecular weight of DimerX (250,000 Da).
Affinity Constants and Gibbs Free Energy. […] The following calculation was used to obtain the KD for interactions that rapidly reach equilibrium:(2) KD=kd/ka. The formation of molecular complex between DimerX and peptides complex was also analyzed to calculate the Gibbs free energy of dissociation. This energy is related to the equilibrium constant (Keq) of the transition state between the product (DimerX/peptide) and its transient state. The values of Keq were calculated using the ka and kd data obtained from the SPR assay at 25°C:(3) ΔG^°=−RTln1/Keq.
The kinetic parameters of DimerX/peptides complexes were assessed, prior to the ex vivo assay with the mouse cells, to ensure that the assayed peptides could stably bind to the H-2 cleft of DimerX proteins. The DimerX proteins were immobilized onto the sensor chip using the EDC/NHS methodology for covalent binding and, thus, we assumed that the α1 and α2 domains of the recombinant H-2 were free to interact with the synthetic peptides in solution. The RU value obtained after DimerX immobilization was taken as reference to define the baseline to measure peptides binding (Figure 1).

[3] = RUd of cells from infected mice minus RUd of cells from noninfected mice, 10^4 cells in PBS

Chain of H-2 L^d:Ig (DimerX) protein (P01897 25-298 limits assumed): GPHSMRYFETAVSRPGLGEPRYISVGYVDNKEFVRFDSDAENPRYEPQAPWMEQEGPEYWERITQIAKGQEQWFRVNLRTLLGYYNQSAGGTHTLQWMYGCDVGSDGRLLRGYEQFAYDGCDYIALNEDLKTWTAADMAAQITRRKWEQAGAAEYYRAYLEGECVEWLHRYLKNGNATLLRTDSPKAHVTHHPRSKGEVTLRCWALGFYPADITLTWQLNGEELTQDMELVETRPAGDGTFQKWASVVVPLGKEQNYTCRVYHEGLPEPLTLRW
Chain of H-2 L^d:Ig (DimerX) protein (P01887 21-119, further chain): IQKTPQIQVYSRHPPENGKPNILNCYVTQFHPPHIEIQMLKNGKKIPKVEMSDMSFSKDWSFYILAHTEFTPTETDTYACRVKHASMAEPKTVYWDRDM

Sequence | RUs (subtractive dissociation response) 3rd week [1, 3] | RUs (subtractive dissociation response) 4th week [1, 3] | RUs (subtractive dissociation response) 6th week [1, 3] | RUs (subtractive dissociation response) 12th week [1, 3] | RUs (subtractive dissociation response) 18th week [1, 3] | trend of reactivity of peptide-reactive T lymphocytes along the infection [1] | Kd [2] | association constant (ka) [2] | dissociation constant (kd) [2] | RUs (subtractive dissociation response) 1st week ([1]; RUd of cells from infected mice minus RUd of cells from noninfected mice, 10^4 cells in PBS, 1st week of infection)
EFCLGGGLC [P6.5, synthetic peptide … derived from the COOH-terminal region of cysteine proteinase B of L. (L.) amazonensis] | 55 RU | 185 RU | 109 RU | 27 RU | 85 RU | oscillation in their reactivity | 0.7 nM | 6.40 × 10^7 M^−1 S^−1 | 0.0470 S^−1 | –
VEQVICFD [P1.10, synthetic peptide VEQVICFD derived from the COOH-terminal region of cysteine proteinase B of L. (L.) amazonensis] | 227 RU | – | 123 RU | 31 RU | 44 RU | clear tendency to diminish their reactivity along the infection | 1 nM | 1.10 × 10^8 M^−1 S^−1 | 0.1230 S^−1 | –
MVEQVICFD [P1.9, synthetic peptide … derived from the COOH-terminal region of cysteine proteinase B of L. (L.) amazonensis] | 181 RU | 149 RU | 118 RU | 120 RU | 66 RU | oscillation in their reactivity | 74 nM | 1.57 × 10^6 M^−1 S^−1 | 0.1157 S^−1 | 115 RU
CLGGGLCL [P6.4, synthetic peptide CLGGGLCL derived from the COOH-terminal region of cysteine proteinase B of L. (L.) amazonensis] | 100 RU | 127 RU | 140 RU | – | 66 RU | oscillation in their reactivity | 9 nM | 1.20 × 10^7 M^−1 S^−1 | 0.1089 S^−1 | –
